Earlier results on one compound are cited in patent US20220143046A1, “COMPOSITION AND METHODS FOR RECTAL DELIVERY OF 4-AAPA AND 5-ASA COMPOUNDS” (9 METERS BIOPHARMA, INC., priority 2019, published 2022).

The structures appear in SMILES notation.

The data set deals with toxin A-induced colonic inflammation. Conditions: rats; cited from earlier US patents and McVey et al. 2005.

`O=C(O)Cc1ccc(/N=N/c2ccc(O)c(C(=O)O)c2)cc1` [INN-108, 5-(4-carboxymethyl-phenylazo)-2-hydroxybenzoic acid]: the “inhibition of toxin A-induced colonic inflammation” value is reported as “potent inhibitor”.
